# Assay results published in patent publication EP0096931B1, “Radiographic imaging agents” (priority 1982, dated 1983).
# Test: Skeletal imaging with a scintillation camera after intravenous injection of the imaging agent
# Type: in vivo, human
# Conditions: acid or its monosodium salt replaces AMDP in the Example I kit; compared with the Example I result
# Method: An imaging agent is prepared using this kit by adding about 5 ml of a pertechnetate-Tc99m physiological saline solution, with an activity of about 0.278 x 10^10 Bq (about 75 mCi), from a commercial technetium source. The vial is agitated until the kit components are dissolved. About 1 ml of the agent is slowly injected, over a period of about 30 seconds, into an adult human subject weighing about 75 kg.
row,Compound,"skeletal images, carrier used instead of AMDP in the kit of Example I"
1,"NCC(O)(P(=O)(O)O)P(=O)(O)O [ethane-1-hydroxy-2-amino-1,1-diphosphonic acid]",substantially similar results
2,"NCCC(O)(P(=O)(O)O)P(=O)(O)O [propane-1-hydroxy-3-amino-1,1-diphosphonic acid]",substantially similar results
3,NC(O)(P(=O)(O)O)P(=O)(O)O [methaneaminohydroxydiphosphonic acid],substantially similar results
4,"CN(C)C(P(=O)(O)O)P(=O)(O)O [methane-N,N-dimethylaminodiphosphonic acid]",substantially similar results
5,CNC(P(=O)(O)O)P(=O)(O)O [methane-N-methylaminodiphosphonic acid],substantially similar results
